In US11168073B2, “3,3-difluoroallylamines or salts thereof and pharmaceutical compositions comprising the same” (YUHAN CORPORATION, priority 2018, dated 2021):
Structures can show the parent of a compound that is named as a salt.

Tests used:
Type in all cases: biochemical
recombinant human VAP-1 = molecular target: T1, recombinant human VAP-1 (Homo sapiens, UniProt Q16853); assay: Activity evaluation on recombinant human VAP-1 (Amplex Red/HRP-coupled hydrogen peroxide assay, benzylamine substrate); conditions: recombinant human VAP-1, benzylamine substrate; read-out: Inhibitory Activity (IC50, nM) human VAP-1
T1 construct: purchased R&D systems
T1 sequence (Q16853 1-763): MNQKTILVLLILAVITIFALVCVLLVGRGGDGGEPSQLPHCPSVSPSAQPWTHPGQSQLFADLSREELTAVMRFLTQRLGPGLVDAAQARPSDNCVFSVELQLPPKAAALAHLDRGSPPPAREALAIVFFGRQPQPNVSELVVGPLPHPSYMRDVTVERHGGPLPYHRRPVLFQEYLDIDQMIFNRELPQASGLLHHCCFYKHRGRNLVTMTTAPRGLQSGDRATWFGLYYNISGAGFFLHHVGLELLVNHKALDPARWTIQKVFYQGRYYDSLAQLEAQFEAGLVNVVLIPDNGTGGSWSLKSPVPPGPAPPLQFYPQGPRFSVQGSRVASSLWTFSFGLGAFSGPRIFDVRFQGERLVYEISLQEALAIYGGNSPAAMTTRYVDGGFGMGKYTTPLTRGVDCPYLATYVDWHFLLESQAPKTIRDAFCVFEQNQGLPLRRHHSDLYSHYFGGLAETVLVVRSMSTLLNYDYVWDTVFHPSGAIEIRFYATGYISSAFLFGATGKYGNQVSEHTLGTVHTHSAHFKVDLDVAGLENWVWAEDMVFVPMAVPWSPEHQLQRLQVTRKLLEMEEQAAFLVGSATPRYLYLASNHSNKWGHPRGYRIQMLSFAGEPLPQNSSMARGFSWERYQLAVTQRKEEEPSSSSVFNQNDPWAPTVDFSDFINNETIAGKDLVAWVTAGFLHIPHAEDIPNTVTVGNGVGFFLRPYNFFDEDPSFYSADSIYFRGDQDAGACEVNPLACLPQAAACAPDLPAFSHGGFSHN
Procedure, shortened: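 Hydrogen peroxide from benzylamine (1 mM) oxidation by human recombinant VAP-1 detected via HRP-coupled Amplex Red (200 uM) fluorescence, kinetic over 1–2 h. Enzyme and compound preincubated 30 min at 37 °C, pH 7.4 phosphate; 8-point dose response, signal-rate decrease versus DMSO control fitted to four-parameter logistic for IC50.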

[1] = molecular target: T2, recombinant human MAO-A (monoamine oxidase-A) (Homo sapiens, UniProt P21397); assay: Activity evaluation on recombinant human MAO-A (Amplex Red/HRP-coupled assay, 0.5 mM tyramine substrate); conditions: 0.5 mM tyramine substrate, read-out: Inhibitory Activity (IC50, nM) MAO-A
T2 construct: purchased Sigma-Aldrich
T2 sequence (P21397 1-527): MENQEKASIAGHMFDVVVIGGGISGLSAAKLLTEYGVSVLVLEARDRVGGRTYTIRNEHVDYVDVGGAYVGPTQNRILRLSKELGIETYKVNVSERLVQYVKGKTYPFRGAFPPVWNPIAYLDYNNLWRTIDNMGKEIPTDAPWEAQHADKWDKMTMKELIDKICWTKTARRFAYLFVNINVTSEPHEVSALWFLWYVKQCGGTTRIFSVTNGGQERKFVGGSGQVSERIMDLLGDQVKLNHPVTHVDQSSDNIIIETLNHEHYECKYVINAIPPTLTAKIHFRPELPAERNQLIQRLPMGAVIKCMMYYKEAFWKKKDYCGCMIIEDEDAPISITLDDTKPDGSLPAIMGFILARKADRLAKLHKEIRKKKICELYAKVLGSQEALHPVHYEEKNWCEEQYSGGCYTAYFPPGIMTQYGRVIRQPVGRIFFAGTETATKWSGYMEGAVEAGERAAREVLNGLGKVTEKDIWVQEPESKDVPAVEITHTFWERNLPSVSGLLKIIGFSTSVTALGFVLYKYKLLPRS
Procedure, shortened: (§1)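 Each oxidase is tested with its own substrate: MAO-A with 0.5 mM tyramine, MAO-B with 1 mM benzylamine, DAO with 1 mM putrescine. After 30 min enzyme-compound preincubation at 37 °C, Amplex Red (200 uM) plus HRP (1 U/mL) reports H2O2 as fluorescence; IC50 is fitted from eight-point curves.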

[2] = molecular target: T3, recombinant human MAO-B (monoamine oxidase-B) (Homo sapiens, UniProt P27338); assay: Activity evaluation on recombinant human MAO-B (Amplex Red/HRP-coupled assay, 1 mM benzylamine substrate); conditions: 1 mM benzylamine substrate, read-out: Inhibitory Activity (IC50, nM) MAO-B
T3 construct: purchased Sigma-Aldrich
T3 sequence (P27338 1-520): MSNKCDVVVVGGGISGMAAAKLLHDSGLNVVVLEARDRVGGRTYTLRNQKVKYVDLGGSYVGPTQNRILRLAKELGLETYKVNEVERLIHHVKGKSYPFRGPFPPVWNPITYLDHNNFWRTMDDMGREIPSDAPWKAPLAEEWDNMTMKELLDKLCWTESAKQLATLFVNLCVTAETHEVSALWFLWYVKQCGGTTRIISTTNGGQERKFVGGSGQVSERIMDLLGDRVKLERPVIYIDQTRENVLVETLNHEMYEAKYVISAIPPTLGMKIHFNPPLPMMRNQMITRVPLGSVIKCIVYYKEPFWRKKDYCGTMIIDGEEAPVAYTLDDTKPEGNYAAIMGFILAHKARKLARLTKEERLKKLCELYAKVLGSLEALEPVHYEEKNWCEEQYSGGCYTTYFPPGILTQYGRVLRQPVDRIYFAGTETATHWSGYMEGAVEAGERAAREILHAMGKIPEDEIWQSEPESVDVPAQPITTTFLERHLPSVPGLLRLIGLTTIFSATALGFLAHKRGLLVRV
Procedure, shortened: as §1

[3] = molecular target: T4, recombinant human DAO (diamine oxidase) (Homo sapiens, UniProt P19801); assay: Activity evaluation on recombinant human DAO (Amplex Red/HRP-coupled assay, 1 mM putrescine substrate); conditions: 1 mM putrescine substrate, read-out: Inhibitory Activity (IC50, nM) DAO
T4 construct: purchased R&D systems
T4 sequence (P19801 20-751): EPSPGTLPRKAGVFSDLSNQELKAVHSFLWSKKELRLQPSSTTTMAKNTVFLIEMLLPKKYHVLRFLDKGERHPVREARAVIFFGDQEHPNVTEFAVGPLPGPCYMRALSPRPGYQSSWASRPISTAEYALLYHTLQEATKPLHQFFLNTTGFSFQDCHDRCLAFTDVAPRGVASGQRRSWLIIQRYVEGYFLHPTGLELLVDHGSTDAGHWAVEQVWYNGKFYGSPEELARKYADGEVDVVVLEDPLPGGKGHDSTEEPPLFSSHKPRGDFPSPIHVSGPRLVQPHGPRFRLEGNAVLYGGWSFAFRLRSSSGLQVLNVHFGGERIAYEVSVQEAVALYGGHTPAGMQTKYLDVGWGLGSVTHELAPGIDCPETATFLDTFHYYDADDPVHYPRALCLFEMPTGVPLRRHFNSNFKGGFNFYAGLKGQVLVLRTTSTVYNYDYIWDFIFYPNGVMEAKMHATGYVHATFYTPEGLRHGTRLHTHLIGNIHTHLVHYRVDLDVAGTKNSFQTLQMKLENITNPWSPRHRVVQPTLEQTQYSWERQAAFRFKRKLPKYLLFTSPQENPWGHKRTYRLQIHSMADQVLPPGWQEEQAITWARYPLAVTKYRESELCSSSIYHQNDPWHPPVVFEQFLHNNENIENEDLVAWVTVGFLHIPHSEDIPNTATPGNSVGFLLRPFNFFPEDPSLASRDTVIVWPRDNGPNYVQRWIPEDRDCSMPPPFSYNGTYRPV
Procedure, shortened: as §1

Q: With `Cc1c(-c2ccc(C(F)(F)F)nc2)cccc1-n1cnn(CC(CN)=C(F)F)c1=O` [Example 255, 2-[2-(aminomethyl)-3,3-difluoro-allyl]-4-[2-methyl-3-[6-(trifluoromethyl)-3-pyridyl]phenyl]-1,2,4-triazol-3-one Trifluoroacetate] as the compound, how does the IC50 (recombinant human VAP-1) read?
A: 2.3 nM

Q: What about the IC50 [1] of the same compound?
A: > 100000 nM

Q: And the IC50 [2]?
A: > 100000 nM

Q: And the IC50 [3]?
A: 35000 nM

Q: `Cc1c(-c2ccc(N(C)C)nc2)cccc1-n1cnn(CC(CN)=C(F)F)c1=O` [Example 256, 2-[2-(aminomethyl)-3,3-difluoro-allyl]-4-[3-[6-(dimethylamino)-3-pyridyl]-2-methyl-phenyl]-1,2,4-triazol-3-one Trifluoroacetate] was tested. Which IC50 (recombinant human VAP-1) did it give?
A: 2.5 nM

Q: And the IC50 [1]?
A: > 100000 nM

Q: What about the IC50 [2] of the same compound?
A: > 100000 nM

Q: And the IC50 [3]?
A: > 100000 nM

Q: Which IC50 (recombinant human VAP-1) does the source give for `Cc1c(-c2ccc3c(c2)OCO3)cccc1-n1cnn(CC(CN)=C(F)F)c1=O` [Example 257, 2-[2-(aminomethyl)-3,3-difluoro-allyl]-4-[3-(1,3-benzodioxol-5-yl)-2-methyl-phenyl]-1,2,4-triazol-3-one Trifluoroacetate] here?
A: 2.4 nM

Q: What about the IC50 [1] of the same compound?
A: > 100000 nM

Q: And the IC50 [2]?
A: 101000 nM

Q: And the IC50 [3]?
A: > 100000 nM

Q: How did the IC50 (recombinant human VAP-1) turn out when `Cc1cc(-c2cccc(-n3cnn(CC(CN)=C(F)F)c3=O)c2C)cc2c1NC(=O)CC2` [Example 258, 6-[3-[1-[2-(aminomethyl)-3,3-difluoro-allyl]-5-oxo-1,2,4-triazol-4-yl]-2-methyl-phenyl]-8-methyl-3,4-dihydro-1H-quinolin-2-one Trifluoroacetate] was run?
A: 2.5 nM

Q: What about the IC50 [1] of the same compound?
A: > 100000 nM

Q: What about the IC50 [2] of the same compound?
A: > 100000 nM

Q: And the IC50 [3]?
A: > 100000 nM

Q: What does the source list for `Cc1c(-c2ccc3c(c2)CCC(=O)N3C)cccc1-n1cnn(CC(CN)=C(F)F)c1=O` [Example 259, 6-[3-[1-[2-(aminomethyl)-3,3-difluoro-allyl]-5-oxo-1,2,4-triazol-4-yl]-2-methyl-phenyl]-1-methyl-3,4-dihydroquinolin-2-one Trifluoroacetate]?
A: IC50 (recombinant human VAP-1): 1.3 nM; IC50 [1]: > 100000 nM; IC50 [2]: > 100000 nM; IC50 [3]: > 100000 nM

Q: For `CCn1cc(-c2cccc(-n3cnn(CC(CN)=C(F)F)c3=O)c2C)cn1` [Example 260, 2-[2-(aminomethyl)-3,3-difluoro-allyl]-4-[3-(1-ethylpyrazol-4-yl)-2-methyl-phenyl]-1,2,4-triazol-3-one Trifluoroacetate], which IC50 (recombinant human VAP-1) is on record?
A: 3.7 nM

Q: And the IC50 [1]?
A: > 100000 nM

Q: And the IC50 [2]?
A: > 100000 nM

Q: What about the IC50 [3] of the same compound?
A: > 100000 nM

Q: What does the source list for `Cc1c(-c2cnn(C(F)F)c2)cccc1-n1cnn(CC(CN)=C(F)F)c1=O` [Example 261, 2-[2-(aminomethyl)-3,3-difluoro-allyl]-4-[3-[1-(difluoromethyl)pyrazol-4-yl]-2-methyl-phenyl]-1,2,4-triazol-3-one Trifluoroacetate]?
A: IC50 (recombinant human VAP-1): 6.5 nM; IC50 [1]: > 100000 nM; IC50 [2]: > 100000 nM; IC50 [3]: > 100000 nM

Q: With `Cc1c(-c2cnn(C(C)C)c2)cccc1-n1cnn(CC(CN)=C(F)F)c1=O` [Example 262, 2-[2-(aminomethyl)-3,3-difluoro-allyl]-4-[3-(1-isopropylpyrazol-4-yl)-2-methyl-phenyl]-1,2,4-triazol-3-one Trifluoroacetate] as the compound, how does the IC50 (recombinant human VAP-1) read?
A: 7.4 nM

Q: And the IC50 [1]?
A: > 100000 nM

Q: And the IC50 [2]?
A: > 100000 nM

Q: What about the IC50 [3] of the same compound?
A: > 100000 nM

Q: `Cc1c(-c2cccc(-c3nc[nH]n3)c2)cccc1-n1cnn(CC(CN)=C(F)F)c1=O` [Example 263, 2-[2-(aminomethyl)-3,3-difluoro-allyl]-4-[2-methyl-3-[3-(1H-1,2,4-triazol-3-yl)phenyl]phenyl]-1,2,4-triazol-3-one Trifluoroacetate] was tested. Which IC50 (recombinant human VAP-1) did it give?
A: 29 nM

Q: What about the IC50 [1] of the same compound?
A: > 100000 nM

Q: And the IC50 [2]?
A: > 100000 nM

Q: What about the IC50 [3] of the same compound?
A: > 100000 nM

Q: Which IC50 (recombinant human VAP-1) does the source give for `CCn1cc(-c2ccc(Cn3cnn(CC(CN)=C(F)F)c3=O)cc2)cn1` [Example 264, 2-[2-(aminomethyl)-3,3-difluoro-allyl]-4-[[4-(1-ethylpyrazol-4-yl)phenyl]methyl]-1,2,4-triazol-3-one Trifluoroacetate] here?
A: 1.3 nM

Q: What about the IC50 [1] of the same compound?
A: > 100000 nM

Q: And the IC50 [2]?
A: > 100000 nM

Q: What about the IC50 [3] of the same compound?
A: > 100000 nM

Q: With `CS(=O)(=O)c1ccc(-c2ccc(Cn3cnn(CC(CN)=C(F)F)c3=O)cc2)cc1` [Example 265, 2-[2-(aminomethyl)-3,3-difluoro-allyl]-4-[[4-(4-methylsulfonylphenyl)phenyl]methyl]-1,2,4-triazol-3-one Trifluoroacetate] as the compound, how does the IC50 (recombinant human VAP-1) read?
A: 1.4 nM

Q: And the IC50 [1]?
A: > 100000 nM

Q: And the IC50 [2]?
A: > 100000 nM

Q: And the IC50 [3]?
A: > 100000 nM

Q: With `NCC(Cn1ncn(Cc2ccc(-c3ccc(N4CCNCC4)cc3)cc2)c1=O)=C(F)F` [Example 266, 2-[2-(aminomethyl)-3,3-difluoro-allyl]-4-[[4-(4-piperazin-1-ylphenyl)phenyl]methyl]-1,2,4-triazol-3-one Ditrifluoroacetate] as the compound, how does the IC50 (recombinant human VAP-1) read?
A: 9.1 nM

Q: And the IC50 [1]?
A: > 100000 nM

Q: What about the IC50 [2] of the same compound?
A: > 100000 nM

Q: What about the IC50 [3] of the same compound?
A: 330 nM

Q: For `CN(C)c1ccc(-c2ccc(Cn3cnn(CC(CN)=C(F)F)c3=O)cc2)cn1` [Example 267, 2-[2-(aminomethyl)-3,3-difluoro-allyl]-4-[[4-[6-(dimethylamino)-3-pyridyl]phenyl]methyl]-1,2,4-triazol-3-one Trifluoroacetate], which IC50 (recombinant human VAP-1) is on record?
A: 1.1 nM

Q: What about the IC50 [1] of the same compound?
A: > 100000 nM

Q: And the IC50 [2]?
A: > 100000 nM

Q: And the IC50 [3]?
A: > 100000 nM
